Columns and labels:
Assay type in all cases: cell-based
[1] = system: TC28 cells; assay: GAG release from TC28 chondrocytes in polyHEME plates (DMB dye binding assay); details: for % Decrease in GAG Release, IL-1b / % Decrease in GAG Release, NOC-12 / % Decrease in GAG Release, SIN-1: TC28 cells in polyHEME plates, 1 μM compound; for % Decrease in GAG Release, IL-1b: trigger IL-1 10 ng/ml; for % Decrease in GAG Release, NOC-12: trigger NOC-12 25 μM; for % Decrease in GAG Release, SIN-1: trigger SIN-1 10 μM; for EC50: approximate, prevention of GAG release, polyHEME plates, 1 h pretreatment, 72 h
Protocol: Immortalized TC28 (a.k.a. “[…]”) juvenile rib chondrocytes were provided by Dr. Mary Goldring (Harvard Medical School, Boston, Mass.). The TC28 cells were maintained in monolayer culture in DMEM/Ham's F12 (1:1) and supplemented with 10% FCS, 1% L-glutamine, 100 units/ml Penicillin and […] Streptomycin (Omega Scientific, Tarzana, Ca) and cultured at 37° C. with 5% CO2. Additionally, to further study chondrocytic cells in a more physiologic nonadherent state, in some experiments, TC28 cells were transferred to 6 well plates that had been previously coated for 18 hours at 22° C. with 10% (v/v) in 95% ethanol solution of the cell adhesion inhibitor poly 2-hydroxyethyl methacrylate (polyHEME), followed by two washes in PBS. Complete DMEM/Ham's F12 medium was then added to the wells and the cells studied for up to 72 hours in culture (Folkman J. and Moscona A: Role of cell shape in growth control, Nature 273:345-349, 1978; Reginato A, Iozzo R, Jimenez S: Formation of Nodular Structures Resembling Mature Articular Cartilage in Long-Term Primary Cultures of Human Fetal Epiphyseal Chondrocytes on a Hydrogel Substrate, Arthritis Rheum 37: 1338-1349, 1994). Type II collagen and aggrecan expression were confirmed using RT-PCR, which verified maintenance of chondrocyte phenotype. The chondrocyte protective effects of representative compounds were screened in vitro. The agonists included a donor of nitric oxide (NOC-12), a donor of peroxynitrite (SIN-1), and human recombinant IL-1beta. […] Cytotoxicity was studied using standard LDH release assay, and chondrocyte intracellular ATP was measured by standard luciferase assay. The enhanced release from chondrocytes of glycosaminoglycans (GAG) is a central feature of osteoarthritic chondrocytes, and is known to be stimulated potently by IL-1, which, like NO and peroxynitrite is a major pathogenic factor in osteoarthritis. […] The digestion of the interfering proteins accomplished in this manner allowed the GAG release to be more readily detectable, and the GAG release was quantified by the standard dimethylene blue (DMB) dye binding colorimetric assay. In brief, the cell extract digested from above was combined with 46 μM DMB, 40 mM glycine and 40 mM NaCl (pH 3.0) and immediately read at 525 nm and compared again at a standard curve generated with samples of 1-50 μg/ml chondroitin sulfate (Farndale R, Buttle D, Barrett A: Improved quantitation and discrimination of sulphated glycosaminoglycans by us of dimethylmethylene blue, Biochimica et Biophysica Acta 883: 173-177, 1986; SztrolovicsR, White R, Poole R, Mort J, Roughley P: Resistance of small leucine-rich repeat proteoglycans to proteolytic degradation during interleukin-1 stimulated cartilage catabolism, Biochem J. 339: 571-577, 1999). Collagen production was measured by following ^3H proline incorporation as described in Johnson et al., Arthritis Rheum. 43:11560-70, 2000. […] In these experiments, TC28 cells in polyHEME coated plates were pre-treated for 1 hr followed by exposure to trigger for 72 hrs in the present of Compound (1).

[2] = system: bovine cartilage slices; assay: Bovine cartilage organ culture, IL-1-mediated GAG release; details: approximate, IL-1 10 ng/ml, 6 h pretreatment, 24 h, read-out: EC50 GAG Release, IL-1 Trigger
Protocol: (§1) Mature bovine knees were obtained and cartilage from the femoral condyles and patellar groove was removed in full thickness slices. (1–3 mm). Circular cores (6–7 mm in diameter) were punched out of the tissue. The cores were washed twice with media (1% FCS, 1% P/S, 1% glutamine containing DMEM high glucose) and then placed in 96 wells plates. The slices were incubated in media (as above) at 37° C. for 48 hrs to allow for recovery from the isolation process. After the recovery period, the media was removed and fresh media with Compound (1) was added to the slices for a pretreatment period of 6 hrs. Then the media was removed and fresh Compound (1)+/− IL-1 (at 10 ng/ml) was added and incubated at 37° C. for 24 hrs. The conditioned media was collected and the GAG and NO release were analyzed. Finally the slices were weighed to correct for slight variations in size or thickness. The results of this experiment are presented in Table 5, which provides the approximate EC50 values (μM) for prevention of IL-1-mediated GAG and NO release in bovine cartilage slices by Compound (1).

[3] = system: TC28 cells; assay: Oxygen consumption / mitochondrial respiration in TC28 monolayer culture; details: 500 μM SIN-1 for 4 hr +/- 10 μM compound, FIG. 1
Protocol: In this experiment, TC28 cells were treated with 500 μM SIN-1 for 4 hr+/−10 μM Compound (1): State 3/4—basal respiration rate with no substrate addition; State 4—respiration rate in present of […] oligomycin; State 3U—maximal state 3 uncoupled respiration rate due to addition of the uncoupler CCCP.

[4] = system: TC28 cells; assay: Collagen synthesis (3H proline incorporation); details: approximate, prevention of inhibition of collagen synthesis, polyHEME plates, 1 h pretreatment, 72 h
Protocol: Collagen production was measured by following ^3H proline incorporation as described in Johnson et al., Arthritis Rheum. 43:11560–70, 2000. The results are presented in Table 4, which provides the approximate EC50 values (μM) for prevention of SIN-1, NOC-12 and IL-1 mediated GAG release (via Example 3) and inhibition of collagen synthesis (via Johnson et al.) in chondrocytes by Compound (1). In these experiments, TC28 cells in polyHEME coated plates were pre-treated for 1 hr followed by exposure to trigger for 72 hrs in the present of Compound (1).

[5] = system: TC28 cells; assay: ATP assay (luciferase); details: approximate, prevention of ATP depletion, 1 h pretreatment, 24 h exposure
Protocol: 5×10^5 TC28 cells were plated in a 60 mm dish and allowed to adhere overnight. The cells were then washed with PBS and media was changed to 1% FCS containing media. Compound (1) was added for 1 hr pretreatment of the cells at 37° C. The media was removed and fresh compound+/− the toxic stimuli were added and the cells incubated for 24 hrs at 37° C. The cells were gently scraped into PBS and washed and then the pellets were snap frozen in dry ice. The cells were then extracted in 0.4 N perchloric acid and incubated on ice for 15 min. The cells were centrifuged at 14,000 rpm for 15 min and the supernatant removed. 24% (by volume) of 2.2 M KHCO3 was added to neutralize the solution and the precipitate was pelleted by centrifugation. This supernatant was mixed with the ATP assay mix from the Sigma ATP Luciferase kit and the reaction was counted for 15 sec (with an initial 5 sec delay) in triplicate. Counts were corrected for total DNA in the cell pellet (see Table 3).
(§2) The results of the above Cell Viability and ATP Assays are presented in Table 3, which provides the approximate EC50 values (μM) for prevention of SIN-1 and NOC-12 mediated cell death and ATP depletion by Compound (1). In these assays, TC28 cells were pre-treated for one hour followed by 24-hour exposure to trigger in the presence of Compound (1).

[6] = system: bovine cartilage slices; assay: Bovine cartilage organ culture, IL-1-mediated NO release; details: approximate, IL-1 10 ng/ml, 6 h pretreatment, 24 h, read-out: EC50 NO Release, IL-1 Trigger
Protocol: as §1

[7] = system: TC28 cells; assay: Cell viability assay (LDH release, CytoTox 96); details: approximate, prevention of cell death, 1 h pretreatment, 24 h exposure
Protocol: 1×10^5 TC28 cells (DMEM/F12 media with 10% FCS, 1% glutamine, 1% P/S) were plated each well in a 96 well plate and allowed to adhere overnight. The cells were washed once with PBS and media changed to contain only 1% FCS. Compound (1) at various concentrations was added to the cells for a pretreatment of 1 hr. The media was removed and fresh compound+/− the toxic stimuli were added. The cells were then incubated for 24 hrs at 37° C. Following the incubation the media was collected and used for analysis in the CytTox 96 Nonradioactive Cytotoxicity Assay (Promega, Madison, Wis.). Briefly the LDH release from the dead cells was quantified in a 30 min enzymatic reaction that results in the conversion of a tetrazolium […] to a red formazan product. The results were then expressed as the percent of cells dead relative to the release of LDH by the control cells.
as §2

Structure (SMILES)	% Decrease in GAG Release, IL-1b [1] [%]	% Decrease in GAG Release, NOC-12 [1] [%]	% Decrease in GAG Release, SIN-1 [1] [%]	other results
COc1ccc(NC(N)=NC#N)cc1Cl [(2)]	40.9	50.1	23.6	–
N#CN=C(N)Nc1ccc(N2CCOCC2)cc1 [(3)]	29.1	28.0	21.9	–
COc1cc(NC(N)=NC#N)cc(OC)c1OC [(4)]	1.5	17.2	11.3	–
N#CN=C(N)Nc1cccc(C(F)(F)F)c1 [(5)]	30.7	14.2	35.0	–
Cc1ccc(NC(N)=NC#N)c(C)c1 [(6)]	2.4	11.0	1.6	–
Cc1cc(C)cc(NC(N)=NC#N)c1 [(7)]	56.6	46.2	42.3	–
Cc1cc(Cl)ccc1NC(N)=NC#N [(8)]	43.8	32.3	55.2	–
Cc1cc(O)ccc1NC(N)=NC#N [Compound (1)]	36.8	27.4	47.7	EC50 [2]: ~10 µM; SIN-1-mediated inhibition of mitochondrial respiration [3]: blocked SIN-1-mediated inhibition of mitochondrial respiration; EC50 ([4]; IL-1 challenge 10 ng/ml, read-out: EC50 Collagen, trigger IL-1): ~1 µM; EC50 ([4]; NOC-12 challenge 25 μM, read-out: EC50 Collagen, trigger Noc12): ~1 µM; EC50 ([4]; SIN-1 challenge 10 μM, read-out: EC50 Collagen, trigger Sin-1): ~1 µM; EC50 ([1]; IL-1 challenge 10 ng/ml, read-out: EC50 GAG Release, trigger IL-1): ~0.1 µM; EC50 ([1]; NOC-12 challenge 25 μM, read-out: EC50 GAG Release, trigger Noc12): ~0.1 µM; EC50 ([1]; SIN-1 challenge 10 μM, read-out: EC50 GAG Release, trigger Sin-1): ~0.1 µM; EC50 ([5]; NOC-12 challenge 250 μM, read-out: EC50 ATP Depletion, trigger Noc12): ~0.1 µM; EC50 ([5]; SIN-1 challenge 100 μM, read-out: EC50 ATP Depletion, trigger Sin-1): ~0.1 µM; EC50 [6]: ~10 µM; EC50 ([7]; NOC-12 challenge 250 μM, read-out: EC50 Cell Viability, trigger Noc12): ~0.01 µM; EC50 ([7]; SIN-1 challenge 100 μM, read-out: EC50 Cell Viability, trigger Sin-1): ~0.01 µM

Source: US7230132B2, “Aryl N-cyanoguanidines and methods related thereto” (Migenix Corp., priority 2001, dated 2007)
